Assays:
human RBP4 = molecular target: T1, human RBP4 (Homo sapiens, UniProt P02753); assay: Binding assay by Retinol-RBP4-TTR ELISA; conditions: compound 10 μM; retinol 50 nM; His-tagged human RBP4, biotinylated human TTR; read-out: human RBP4 binding inhibitory activity (% at 10 μM)
T1 construct: the culture supernatant containing secreted hRBP4-His was recovered; made in house; host or cells: FreeStyle 293 expression system (Invitrogen)
Description: Using the Retinol-RBP4-TTR ELISA system shown below, the action of the compound of the present invention to inhibit the binding of RBP4 and retinol and TTR was evaluated.
1F: Binding Assay by Retinol-RBP4-TTR ELISA
This ELISA system detects a complex with RBP4 and TTR based on the retinol dependent binding of RBP4 to TTR.
The His-tagged human RBP4 used was prepared in the above-mentioned 1C.
The biotinylated human TTR used was prepared in the above-mentioned 1E.
Streptavidin (20 μl) (10 μg/ml Streptavidin type II (Wako Pure Chemical Industries, Ltd.), 10 mM Tris-HCl (pH 7.5), 10 mM NaCl) was added to a 384 well blackplate (Nunc MaxiSorp, Thermo Fisher Scientific Inc.), and the plate was centrifuged (1000 rpm, 1 min) and coated at 4° C. overnight. The plate was washed twice with PBST (PBS, 0.05% Tween 20, 100 μl/well), and blocked with 25% Block Ace (Snow Brand Milk Products Co., Ltd., PBS, 100 μl/well). The plate was subjected to centrifugation (1000 rpm, 1 min), and incubated at room temperature for 4 hr or 4° C. overnight. The plate was washed twice with PBST (PBS, 0.05% Tween 20, 100 μl/well), and biotinylated human TTR (stock solution concentration 1.0 mg/ml) diluted 750-fold with PBST was added at 20 μl/well. The plate was subjected to centrifugation (1000 rpm, 1 min), and further stood at room temperature for 1.5 hr or 4° C. overnight. The plate was washed 3 times with PBST (100 μl/well), and His-tagged human RBP4 (stock solution concentration 1.28 mg/ml) diluted 4000-fold with a reaction buffer (50 mM Tris-HCl, 150 mM NaCl, 0.005% Tween 20, 1 mM DTT, 0.1% BSA) was added at 10 μl/well. The dilution of the compound (200-fold concentration) was prepared with DMSO, and 1.6 μl each was added to a reaction buffer (320 μl) containing retinol (50 nM) (Sigma-Aldrich Co.). A reaction buffer (320 μl) containing retinol and added with DMSO was used as a positive control, and a reaction buffer (320 μl) not containing retinol and added with DMSO was used as a negative control. A mixed solution of retinol and the compound was added to the plate at 15 μl/well. The plate was stirred in a plate mixer, centrifuged (1000 rpm, 1 min), and reacted at room temperature for 2 hr. Anti-His HRP-conjugated antibody (QIAGEN) solution diluted with a reaction buffer was added […], centrifuged (1000 rpm, 1 min), and reacted at room temperature for 30 min. The plate was washed 3 times with PBST (100 μl/well), SuperSignal ELISA Femto Maximum Sensitivity Substrate reagent (PIERCE, Thermo Fisher Scientific Inc.) was added at 30 μl/well, and the luminescence was measured by a plate reader (Envision).
The binding inhibitory activity of the compound was determined by 100×(positive control value−test compound value)/(positive control value−negative control value).

RBP4 = molecular target: T2, RBP4 (Mus musculus, UniProt Q00724); assay: Blood RBP4-lowering action in C57BL/6J mouse (plasma RBP4 by ELISA); type: in vivo; conditions: male C57BL/6J mice, mean±SD, n=4 or 5; for RBP4 (initial value/control value %) 8 hr later: plasma 8 hr after administration
T2 construct: from tissue; host or cells: plasma of male C57BL/6J mice (Japan Charles River)
Description: The blood RBP4-lowering action of the compound of the present invention was evaluated using C57BL/6J mouse.
Male 7- to 10-week-old C57BL/6J mice (Japan Charles River) were acclimation reared under free food ingestion conditions on CE-2 solid feed (CLEA Japan, Inc.) for 4 to 6 days, and randomly grouped (4 or 5 per group). On the day of the test, blood samples were collected from the tail vein, and plasma was separated (0 hr value). Thereafter, a test compound (Example 1, 4, 5, 6 or 7) was orally administered at a dose of 5 mg/kg (solvent: 0.5% methylcellulose solution (10 mL/kg)). At 8 hr after the compound was administered, blood samples were collected from the tail vein and plasma was separated. Immediately after the blood samples were collected, the test compound was orally administered again at a dose of 5 mg/kg, and blood samples were collected again at 24 hr after the initial administration. In Examples 2, 3 and 8, the initial administration alone was performed at a dose of 10 mg/kg. The daily dose of all the test compounds was set to 10 mg/kg. A 0.5% methylcellulose solution (10 mL/kg) was orally administered to the control group.
The amount of RBP4 in the collected plasma was measured by the ELISA method. Using rabbit anti-mouse RBP4 polyclonal antibody (Hokudo Co., Ltd.), RBP4 was quantified by the following process. A 96 well ELISA plate was coated with 50 μg/mL antibody (100 μL), and stood at 4° C. overnight or at room temperature for 2 hr. After blocking with BlockAce (Dainippon Pharmaceutical Co., Ltd.), 100 μL of mouse RBP4 or sample was added and the plate was stood at room temperature for 2 hr, washed with PBS-0.5% Tween20, added with HRP-labeled anti-RBP4 antibody (prepared by labeling RBP4 polyclonal antibody (Hokudo Co., Ltd.) with HRP (DOJINDO LABORATORIES)) (100 μL), and stood at room temperature for 1 hr. After washing, TMB (Sigma) was added at room temperature for 20 min to allow for color development. The reaction was quenched with 2N sulfuric acid and the absorbance at A450 nm was measured by a platereader. Variation from the initial value of each individual was taken as the relative value to the control group (initial value/control value, %) at each time point. The results are shown below in mean±standard deviation (n=4 or 5).

A2E = assay: Suppression of A2E accumulation in the eyeball of ABCA4 KO mouse (HPLC); type: in vivo; conditions: male ABCA4 KO mice, oral 5 mg/kg twice per day for 12 weeks, n=6
Description: The suppressive action for accumulation of retinoid metabolite bis-retinoid N-retinylidene-N-retinylethanolamine (A2E) in the eyeball, of the compound of the present invention, was evaluated using ATP-binding cassette A4 knockout (ABCA4 KO) mouse. A2E is the major constituent component of Lipofuscin in the eyeball, and is involved in the onset and pathology progression in atrophic age-related macular degeneration and Stargardt's disease. ABCA4 KO mouse was confirmed to show remarkable accumulation of A2E, Lipofuscin along with aging, and is known as an animal model of atrophic age-related macular degeneration and Stargardt's disease.
8-Week-old male ABCA4 KO mice were randomly grouped, and 0.5% methylcellulose solution was orally administered to the control group, and 0.5% methylcellulose suspension of a compound at a dose shown in the following Table was orally administered to the test compound group, each twice per day at 10 mL/kg. Each group contained 6 mice. After repetitive administration for 12 weeks, eyeball was isolated under anesthesia.
In the eyeball, A2E was measured by the HPLC method. A2E reference standard was synthesized from all-trans retinal, ethanolamine in acetic acid-added ethanol. […] Quantification was performed at ultraviolet absorbance at 440 nm by PDA.

[1] = oral 5 mg/kg at 0 hr and again at 8 hr (daily dose 10 mg/kg), plasma 24 hr after initial administration
[2] = oral 10 mg/kg initial administration alone
[3] = oral 10 mg/kg initial administration alone, plasma 24 hr after administration

## O=C(O)CC(=O)N1CC[C@H](COc2ccccc2C2(C(F)(F)F)CC2)C1 [Example 1, 3-oxo-3-((3S)-3-((2-(1-(trifluoromethyl)cyclopropyl)phenoxy)methyl)pyrrolidin-1-yl)propanoic acid]
Human RBP4
  inhibition at 10 µM: 100%
RBP4; [1]
  RBP4 (initial value/control value %) 24 hr later: 28.49 ± 5.16%
RBP4; oral 5 mg/kg
  RBP4 (initial value/control value %) 8 hr later: 30.02 ± 6.85%

## CC1(c2ccccc2OC[C@H]2CCN(C(=O)CC(=O)O)C2)CC1 [Example 2, 3-((3S)-3-((2-(1-methylcyclopropyl)phenoxy)methyl)pyrrolidin-1-yl)-3-oxopropanoic acid]
Human RBP4
  inhibition at 10 µM: 98%
RBP4; [2]
  RBP4 (initial value/control value %) 8 hr later: 11.82 ± 3.24%
RBP4; [3]
  RBP4 (initial value/control value %) 24 hr later: 36.40 ± 12.19%

## O=C(O)CC(=O)N1CC[C@H](COc2ccccc2C2CCC2)C1 [Example 3, 3-((3S)-3-((2-cyclobutylphenoxy)methyl)pyrrolidin-1-yl)-3-oxopropanoic acid]
Human RBP4
  inhibition at 10 µM: 98%
RBP4; [2]
  RBP4 (initial value/control value %) 8 hr later: 37.20 ± 3.71%
RBP4; [3]
  RBP4 (initial value/control value %) 24 hr later: 95.57 ± 8.55%

## O=C(O)CC(=O)N1CC[C@H](COc2ccccc2C2CCCC2)C1 [Example 4, 3-((3S)-3-((2-cyclopentylphenoxy)methyl)pyrrolidin-1-yl)-3-oxopropanoic acid]
Human RBP4
  inhibition at 10 µM: 100%
RBP4; [1]
  RBP4 (initial value/control value %) 24 hr later: 56.02 ± 9.72%
RBP4; oral 5 mg/kg
  RBP4 (initial value/control value %) 8 hr later: 29.93 ± 6.80%
A2E
  A2E (% of control value): 53.94 ± 15.16%

## O=C(O)CC(=O)N1CC[C@H](COc2ccccc2C2CCCCC2)C1 [Example 5, 3-((3S)-3-((2-cyclohexylphenoxy)methyl)pyrrolidin-1-yl)-3-oxopropanoic acid]
Human RBP4
  inhibition at 10 µM: 100%
RBP4; [1]
  RBP4 (initial value/control value %) 24 hr later: 62.83 ± 4.70%
RBP4; oral 5 mg/kg
  RBP4 (initial value/control value %) 8 hr later: 32.30 ± 1.76%

## O=C(O)CC(=O)N1CC[C@@H](COc2ccccc2C2CCCC2)C1 [Example 6, 3-((3R)-3-((2-cyclopentylphenoxy)methyl)pyrrolidin-1-yl)-3-oxopropanoic acid]
Human RBP4
  inhibition at 10 µM: 100%
RBP4; [1]
  RBP4 (initial value/control value %) 24 hr later: 41.90 ± 20.25%
RBP4; oral 5 mg/kg
  RBP4 (initial value/control value %) 8 hr later: 41.42 ± 13.96%

## O=C(O)CC(=O)N1CCC(COc2ccccc2C2CCCC2)C1 (stereo not drawn) [Example 7, 3-(3-((2-cyclopentylphenoxy)methyl)pyrrolidin-1-yl)-3-oxopropanoic acid]
Human RBP4
  inhibition at 10 µM: 100%
RBP4; [1]
  RBP4 (initial value/control value %) 24 hr later: 53.72 ± 6.97%
RBP4; oral 5 mg/kg
  RBP4 (initial value/control value %) 8 hr later: 33.90 ± 6.60%

## CCOC(=O)CC(=O)N1CC[C@H](COc2ccccc2C2(C(F)(F)F)CC2)C1 [Example 8, ethyl 3-oxo-3-((3S)-3-((2-(1-(trifluoromethyl)cyclopropyl)phenoxy)methyl)pyrrolidin-1-yl)propanoate]
RBP4; [2]
  RBP4 (initial value/control value %) 8 hr later: 77.35 ± 7.08%
RBP4; [3]
  RBP4 (initial value/control value %) 24 hr later: 92.76 ± 6.81%

— patent publication US9944596B2, “Heterocyclic compound” (TAKEDA PHARMACEUTICAL COMPANY LIMITED, priority 2014, dated 2018)
